Among the data in PubChem BioAssay AID256 (DTP/NCI, 2004) are T/C values, retold here.

Several values for one entry are separate records, joined by “and”; a condition that tells them apart may be missing. Identical values can stand only once. Inconclusive results and toxic doses are left out. Starred links: 1 amine or outer side, 2 acyl side, 3 side chain; linkers in the order of their positions; H or OH if unused. Positions of bridges follow the written chain, without caps; N, C: chain ends. Non-standard residues stand in square brackets, D forms with d. Residues, ends and D or L forms follow the SMILES beside them. Chains are numbered I, II in the order given. Actinocin(9to1) = Cc1c2oc3c(C)ccc(C(=O)[*:1])c3nc-2c(C(=O)[*:2])c(N)c1=O; aThr = C[C@H](O)[C@H](N)C(=O)O; NMeV = CN[C@H](C(=O)O)C(C)C; Sar = CNCC(=O)O

The test system of this test is CD2F1 mice, L1210 leukemia ip, survival T/C. The experiment in a line: NCI In Vivo Anticancer Drug Screen. Data for tumor model L1210 Leukemia (intraperitoneal) in CD2F1 (CDF1) mice. As to conditions: higher = longer survival. The method in brief:
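Read-out first: treated-group measurement over vehicle-control measurement, expressed as a ratio. Animals bore a transplanted tumor line and were dosed with compound or vehicle.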

[1] abbreviates: endpoint: mean survival time, dose: 100.0 mg/kg/injection, schedule: Q04DX003 (ip), vehicle: saline.
[2] abbreviates: endpoint: mean survival time, dose: 25.0 mg/kg/injection, schedule: Q01DX009 (ip), vehicle: saline with Tween-80.
Setting [3] is: endpoint: mean survival time, dose: 50.0 mg/kg/injection, schedule: Q01DX009 (ip), vehicle: saline with Tween-80.
Where [4] appears, read: endpoint: mean survival time, dose: 100.0 mg/kg/injection, schedule: Q04DX003 (ip), vehicle: saline with Tween-80.

In the case of `Nc1nc(N)c(N=Nc2cccc3ccccc23)c(N)n1`, the T/C (endpoint: mean survival time, dose: 6.25 mg/kg/injection, schedule: Q01DX009 (ip), vehicle: other) is 98 % of control; the T/C (endpoint: mean survival time, dose: 12.5 mg/kg/injection, schedule: Q01DX009 (ip), vehicle: other) was 96 % of control; the T/C (endpoint: mean survival time, dose: 25.0 mg/kg/injection, schedule: Q01DX009 (ip), vehicle: other) is 95 % of control; the T/C (endpoint: mean survival time, dose: 25.0 mg/kg/injection, schedule: Q01DX009 (ip), vehicle: water) was 103 % of control; the T/C (endpoint: mean survival time, dose: 50.0 mg/kg/injection, schedule: Q01DX009 (ip), vehicle: other) is 95 % of control; the T/C (endpoint: mean survival time, dose: 50.0 mg/kg/injection, schedule: Q01DX009 (ip), vehicle: water) was 104 % of control. Also, the T/C was 96 % of control (endpoint: mean survival time, dose: 100.0 mg/kg/injection, schedule: Q01DX009 (ip), vehicle: other) and 87 % of control (endpoint: mean survival time, dose: 100.0 mg/kg/injection, schedule: Q01DX009 (ip), vehicle: water).
As for `Cc1c2oc3c(C)ccc(C(=O)N[C@@H]4C(=O)N[C@H](C(C)C)C(=O)N5CCC[C@H]5C(=O)N(C)CC(=O)N(C)[C@@H](C(C)C)C(=O)O[C@H]4C)c3nc-2c(C(=O)N[C@@H]2C(=O)N[C@H](C(C)C)C(=O)N3CCC[C@H]3C(=O)N(C)CC(=O)N(C)[C@@H](C(C)C)C(=O)O[C@H]2C)c(N)c1=O` (I: [aThr][dV]P[Sar][NMeV] / II: [aThr][dV]P[Sar][NMeV]; ester I:1-I:C, II:1-II:C; linker I:N-II:N via Actinocin(9to1)), the T/C (endpoint: mean survival time, dose: 0.01 mg/kg/injection, schedule: Q04DX003 (ip), vehicle: saline) is 101 % of control; the T/C (endpoint: mean survival time, dose: 0.02 mg/kg/injection, schedule: Q04DX003 (ip), vehicle: saline) is 105 % of control; the T/C (endpoint: mean survival time, dose: 0.03 mg/kg/injection, schedule: Q04DX003 (ip), vehicle: saline) is 107 % of control; the T/C (endpoint: mean survival time, dose: 0.05 mg/kg/injection, schedule: Q04DX003 (ip), vehicle: saline) is 110 % of control; the T/C (endpoint: mean survival time, dose: 0.06 mg/kg/injection, schedule: Q01DX009 (ip), vehicle: saline) was 99 % of control; the T/C (endpoint: mean survival time, dose: 0.1 mg/kg/injection, schedule: Q01DX007 (ip), vehicle: other) is 162 % of control. Also, the T/C by setting is: (endpoint: mean survival time, dose: 0.1 mg/kg/injection, schedule: Q01DX009 (ip), vehicle: other) 120 % of control; (endpoint: mean survival time, dose: 0.1 mg/kg/injection, schedule: Q03DX003 (ip), vehicle: other) 165 % of control; (endpoint: mean survival time, dose: 0.2 mg/kg/injection, schedule: Q01DX009 (ip), vehicle: other) 90 % of control; (endpoint: mean survival time, dose: 0.2 mg/kg/injection, schedule: Q01DX009 (ip), vehicle: saline) 88 % of control; (endpoint: mean survival time, dose: 0.2 mg/kg/injection, schedule: Q04DX003 (ip), vehicle: other) 164 % of control; (endpoint: mean survival time, dose: 0.4 mg/kg/injection, schedule: Q01DX001 (ip), vehicle: saline) 114 % of control and 120 % of control. The T/C (endpoint: mean survival time, dose: 0.4 mg/kg/injection, schedule: Q03DX003 (ip), vehicle: other) was 86 % of control; the T/C (endpoint: mean survival time, dose: 0.6 mg/kg/injection, schedule: Q01DX001 (ip), vehicle: saline) was 122 % of control; the T/C (endpoint: mean survival time, dose: 6.25 micrograms/kg/injection, schedule: Q01DX009 (ip), vehicle: saline + alcohol) is 104 % of control; the T/C (endpoint: mean survival time, dose: 6.3 micrograms/kg/injection, schedule: Q01DX009 (ip), vehicle: water) is 106 % of control; the T/C (endpoint: mean survival time, dose: 12.5 micrograms/kg/injection, schedule: Q01DX009 (ip), vehicle: saline + alcohol) was 107 % of control; the T/C (endpoint: mean survival time, dose: 12.5 micrograms/kg/injection, schedule: Q01DX009 (ip), vehicle: water) is 114 % of control and 112 % of control. Moreover, the T/C is, setting by setting: (endpoint: mean survival time, dose: 25.0 micrograms/kg/injection, schedule: Q01DX009 (ip), vehicle: saline + alcohol) 117 % of control; (endpoint: mean survival time, dose: 25.0 micrograms/kg/injection, schedule: Q01DX009 (ip), vehicle: water) 118 % of control and 120 % of control; (endpoint: mean survival time, dose: 50.0 micrograms/kg/injection, schedule: Q01DX009 (ip), vehicle: saline + alcohol) 109 % of control; (endpoint: mean survival time, dose: 100.0 micrograms/kg/injection, schedule: Q01DX009 (ip), vehicle: water) 115 % of control; (endpoint: median survival time, dose: 0.07 mg/kg/injection, schedule: Q04DX003 (ip), vehicle: saline) 122 % of control; (endpoint: median survival time, dose: 0.13 mg/kg/injection, schedule: Q01DX001 (ip), vehicle: saline) 115 % of control and 117 % of control and 118 % of control. The T/C was 118 % of control and 112 % of control (endpoint: median survival time, dose: 0.25 mg/kg/injection, schedule: Q01DX001 (ip), vehicle: saline); 89 % of control (endpoint: median survival time, dose: 0.33 mg/kg/injection, schedule: Q04DX003 (ip), vehicle: saline); 122 % of control (endpoint: median survival time, dose: 0.5 mg/kg/injection, schedule: Q01DX001 (ip), vehicle: saline); 113 % of control (endpoint: median survival time, dose: 12.5 micrograms/kg/injection, schedule: Q01DX009 (ip), vehicle: saline + alcohol); 117 % of control (endpoint: median survival time, dose: 25.0 micrograms/kg/injection, schedule: Q01DX009 (ip), vehicle: saline + alcohol); 166 % of control (endpoint: median survival time, dose: 200.0 micrograms/kg/injection, schedule: Q01DX009 (ip), vehicle: saline + alcohol).
Regarding `CCN(CCNc1ccc(C)c2sc3cc(Cl)ccc3c(=O)c12)CC(C)O` (stereo unspecified), the T/C is 94 % of control (endpoint: mean survival time, dose: 50.0 mg/kg/injection, schedule: Q01DX001 (ip), vehicle: saline); 88 % of control (endpoint: mean survival time, dose: 100.0 mg/kg/injection, schedule: Q01DX001 (ip), vehicle: saline); 94 % of control under setting [1]; 94 % of control (endpoint: mean survival time, dose: 200.0 mg/kg/injection, schedule: Q01DX001 (ip), vehicle: saline); 94 % of control (endpoint: mean survival time, dose: 200.0 mg/kg/injection, schedule: Q04DX003 (ip), vehicle: saline); 96 % of control (endpoint: mean survival time, dose: 400.0 mg/kg/injection, schedule: Q01DX001 (ip), vehicle: saline). Further, the T/C (endpoint: mean survival time, dose: 400.0 mg/kg/injection, schedule: Q04DX003 (ip), vehicle: saline) was 102 % of control.
As for `CN(C)CCCN1c2ccccc2C(C)(C)c2ccccc21`, the T/C is 105 % of control (endpoint: mean survival time, dose: 12.5 mg/kg/injection, schedule: Q01DX009 (ip), vehicle: saline with Tween-80); 103 % of control under setting [2]; 97 % of control under setting [3]; 86 % of control under setting [4]; 114 % of control (endpoint: mean survival time, dose: 400.0 mg/kg/injection, schedule: Q04DX003 (ip), vehicle: saline with Tween-80).
With `CC(=O)c1ccc(Cl)cc1Cl`, the T/C was 104 % of control (endpoint: mean survival time, dose: 25.0 mg/kg/injection, schedule: Q01DX001 (ip), vehicle: other); 102 % of control (endpoint: mean survival time, dose: 50.0 mg/kg/injection, schedule: Q01DX001 (ip), vehicle: other); 95 % of control (endpoint: mean survival time, dose: 100.0 mg/kg/injection, schedule: Q01DX001 (ip), vehicle: other).
Take `O=C1C=CC(=O)c2nc3c(nc21)[nH]c1ccccc13`: the T/C is, setting by setting: (endpoint: mean survival time, dose: 75.0 mg/kg/injection, schedule: Q01DX001 (ip), vehicle: saline) 101 % of control; (endpoint: mean survival time, dose: 150.0 mg/kg/injection, schedule: Q01DX001 (ip), vehicle: saline) 98 % of control; (endpoint: mean survival time, dose: 300.0 mg/kg/injection, schedule: Q01DX001 (ip), vehicle: saline) 97 % of control.
Take `Clc1c(Cl)c(Cl)[c]([Hg][c]2c(Cl)c(Cl)c(Cl)c(Cl)c2Cl)c(Cl)c1Cl`: the T/C runs as follows: under setting [2], 100 % of control; (endpoint: mean survival time, dose: 25.0 mg/kg/injection, schedule: Q04DX003 (ip), vehicle: saline) 103 % of control; under setting [3], 103 % of control; (endpoint: mean survival time, dose: 50.0 mg/kg/injection, schedule: Q04DX003 (ip), vehicle: saline) 97 % of control; (endpoint: mean survival time, dose: 100.0 mg/kg/injection, schedule: Q01DX009 (ip), vehicle: saline with Tween-80) 97 % of control; under setting [4], 96 % of control. The T/C under setting [1] is 97 % of control.
`COC(=O)Nc1nc2ccc(C(=O)c3cccs3)cc2[nH]1`: the T/C is 105 % of control (endpoint: mean survival time, dose: 10.0 mg/kg/injection, schedule: Q04DX003 (ip), vehicle: Klucel (hydroxypropylcellulose) (HPC)); 107 % of control (endpoint: mean survival time, dose: 10.0 mg/kg/injection, schedule: Q04DX003 (ip), vehicle: other); 110 % of control (endpoint: mean survival time, dose: 20.0 mg/kg/injection, schedule: Q04DX003 (ip), vehicle: Klucel (hydroxypropylcellulose) (HPC)); 120 % of control (endpoint: mean survival time, dose: 40.0 mg/kg/injection, schedule: Q04DX003 (ip), vehicle: Klucel (hydroxypropylcellulose) (HPC)); 110 % of control (endpoint: mean survival time, dose: 40.0 mg/kg/injection, schedule: Q04DX003 (ip), vehicle: other); 221 % of control (endpoint: mean survival time, dose: 60.0 mg/kg/injection, schedule: Q04DX003 (ip), vehicle: saline). For the same compound, the T/C by setting is: (endpoint: mean survival time, dose: 80.0 mg/kg/injection, schedule: Q04DX003 (ip), vehicle: Klucel (hydroxypropylcellulose) (HPC)) 98 % of control; (endpoint: mean survival time, dose: 90.0 mg/kg/injection, schedule: Q04DX003 (ip), vehicle: saline) 121 % of control.
